Source: ChEMBL document CHEMBL5465560, “Selectivity Literature for EUbOPEN Chemogenomic Library” (2024)
Values belong to the molecule of their own block, whether it stands above or below them.

Key:
[1] = molecular target: T1, Mitogen-activated protein kinase kinase kinase 2 (Homo sapiens) (UniProt Q9Y2U5); experiment: Selectivity interaction (Ambit KINOMEscan and KiNATiv profiling in Jurkat cells) EUB0000090b MAP3K2; type: cell-based; conditions: at 1 µM
T1 sequence (whole entry): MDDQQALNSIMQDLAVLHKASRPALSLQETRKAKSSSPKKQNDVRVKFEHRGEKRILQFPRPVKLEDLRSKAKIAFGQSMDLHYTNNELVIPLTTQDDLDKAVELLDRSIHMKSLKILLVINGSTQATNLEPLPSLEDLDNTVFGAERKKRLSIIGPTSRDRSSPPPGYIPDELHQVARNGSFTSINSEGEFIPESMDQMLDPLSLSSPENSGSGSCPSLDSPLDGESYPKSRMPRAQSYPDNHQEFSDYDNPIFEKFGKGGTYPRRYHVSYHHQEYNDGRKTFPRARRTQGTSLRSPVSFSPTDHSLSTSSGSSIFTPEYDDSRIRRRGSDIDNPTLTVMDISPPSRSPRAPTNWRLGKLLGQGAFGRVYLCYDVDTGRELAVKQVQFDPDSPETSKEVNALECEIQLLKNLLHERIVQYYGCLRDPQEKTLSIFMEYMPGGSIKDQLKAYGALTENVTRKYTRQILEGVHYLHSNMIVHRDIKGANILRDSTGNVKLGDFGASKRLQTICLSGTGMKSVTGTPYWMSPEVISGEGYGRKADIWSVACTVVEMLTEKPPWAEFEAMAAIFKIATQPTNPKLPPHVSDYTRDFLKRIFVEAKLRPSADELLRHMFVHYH

[2] = molecular target: T2, Dual specificity protein kinase TTK (Homo sapiens) (UniProt P33981); conditions: at 10 µM
T2 sequence (whole entry): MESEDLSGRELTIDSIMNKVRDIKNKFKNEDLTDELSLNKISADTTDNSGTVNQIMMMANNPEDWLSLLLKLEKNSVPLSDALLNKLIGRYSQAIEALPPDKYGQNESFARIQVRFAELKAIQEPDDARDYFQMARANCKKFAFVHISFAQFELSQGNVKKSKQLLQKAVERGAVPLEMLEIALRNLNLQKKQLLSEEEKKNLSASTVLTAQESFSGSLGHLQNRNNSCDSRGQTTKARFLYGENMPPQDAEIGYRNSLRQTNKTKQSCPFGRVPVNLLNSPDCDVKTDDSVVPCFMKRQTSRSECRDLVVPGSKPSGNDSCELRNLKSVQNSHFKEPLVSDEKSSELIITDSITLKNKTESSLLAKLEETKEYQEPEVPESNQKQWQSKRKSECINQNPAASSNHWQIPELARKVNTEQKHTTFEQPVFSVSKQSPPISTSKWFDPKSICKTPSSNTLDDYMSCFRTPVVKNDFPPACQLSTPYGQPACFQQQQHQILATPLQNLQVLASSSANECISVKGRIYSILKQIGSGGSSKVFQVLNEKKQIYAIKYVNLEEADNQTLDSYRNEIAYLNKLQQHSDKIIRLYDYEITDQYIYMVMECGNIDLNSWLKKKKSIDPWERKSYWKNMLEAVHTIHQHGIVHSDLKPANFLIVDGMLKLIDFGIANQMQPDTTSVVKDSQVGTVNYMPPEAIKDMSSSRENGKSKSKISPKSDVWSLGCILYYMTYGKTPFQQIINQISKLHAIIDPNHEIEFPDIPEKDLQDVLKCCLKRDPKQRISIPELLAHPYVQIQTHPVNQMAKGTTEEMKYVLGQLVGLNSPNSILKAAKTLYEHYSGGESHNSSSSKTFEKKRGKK

[3] = molecular target: Protein-tyrosine kinase 6 (Homo sapiens, UniProt Q13882); experiment: Selectivity interaction (ProQinase) EUB0000171b PTK6
[4] = molecular target: T3, Mitogen-activated protein kinase kinase kinase 15 (Homo sapiens) (UniProt Q6ZN16); experiment: Selectivity interaction (KinomeScan (DiscoverX)) EUB0000666a MAP3K15; conditions: at 10 µM
T3 sequence (whole entry): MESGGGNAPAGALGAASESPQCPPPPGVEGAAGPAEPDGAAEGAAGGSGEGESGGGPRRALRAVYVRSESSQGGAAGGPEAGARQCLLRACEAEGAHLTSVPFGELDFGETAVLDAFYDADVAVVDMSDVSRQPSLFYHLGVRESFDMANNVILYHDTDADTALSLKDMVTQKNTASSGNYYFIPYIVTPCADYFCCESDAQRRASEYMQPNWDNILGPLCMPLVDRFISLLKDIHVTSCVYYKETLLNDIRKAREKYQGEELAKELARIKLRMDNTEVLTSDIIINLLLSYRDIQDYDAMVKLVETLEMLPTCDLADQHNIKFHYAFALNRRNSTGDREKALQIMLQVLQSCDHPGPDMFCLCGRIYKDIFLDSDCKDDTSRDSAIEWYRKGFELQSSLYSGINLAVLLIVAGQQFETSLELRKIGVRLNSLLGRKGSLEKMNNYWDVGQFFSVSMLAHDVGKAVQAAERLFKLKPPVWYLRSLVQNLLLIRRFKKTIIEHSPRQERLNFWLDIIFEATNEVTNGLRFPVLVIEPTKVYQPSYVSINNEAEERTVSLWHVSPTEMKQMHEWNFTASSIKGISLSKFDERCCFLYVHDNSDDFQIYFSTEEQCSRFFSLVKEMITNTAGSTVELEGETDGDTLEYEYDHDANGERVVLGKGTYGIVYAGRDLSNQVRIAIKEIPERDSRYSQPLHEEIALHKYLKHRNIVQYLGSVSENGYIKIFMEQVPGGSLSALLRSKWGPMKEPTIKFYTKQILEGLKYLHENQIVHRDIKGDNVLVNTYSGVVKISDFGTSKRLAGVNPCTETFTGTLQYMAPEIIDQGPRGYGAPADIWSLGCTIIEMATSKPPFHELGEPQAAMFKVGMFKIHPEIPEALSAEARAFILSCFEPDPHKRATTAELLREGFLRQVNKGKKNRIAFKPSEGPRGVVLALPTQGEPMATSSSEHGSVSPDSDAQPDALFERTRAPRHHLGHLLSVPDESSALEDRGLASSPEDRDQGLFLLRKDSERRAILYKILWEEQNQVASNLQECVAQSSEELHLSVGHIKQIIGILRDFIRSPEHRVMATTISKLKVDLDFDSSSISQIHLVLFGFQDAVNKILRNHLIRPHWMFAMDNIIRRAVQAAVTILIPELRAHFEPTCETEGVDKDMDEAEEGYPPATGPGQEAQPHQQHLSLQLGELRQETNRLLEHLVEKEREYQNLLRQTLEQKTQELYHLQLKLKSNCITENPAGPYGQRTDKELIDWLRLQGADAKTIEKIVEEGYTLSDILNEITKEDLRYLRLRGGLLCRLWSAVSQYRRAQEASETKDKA

[5] = molecular target: Transcription initiation factor TFIID subunit 1 (Homo sapiens) (UniProt P21675); experiment: Selectivity interaction (Human bromodomain panel (DSF assay)) EUB0000233b TAF1
Sequence of Transcription initiation factor TFIID subunit 1 (Homo sapiens) (P21675 whole entry): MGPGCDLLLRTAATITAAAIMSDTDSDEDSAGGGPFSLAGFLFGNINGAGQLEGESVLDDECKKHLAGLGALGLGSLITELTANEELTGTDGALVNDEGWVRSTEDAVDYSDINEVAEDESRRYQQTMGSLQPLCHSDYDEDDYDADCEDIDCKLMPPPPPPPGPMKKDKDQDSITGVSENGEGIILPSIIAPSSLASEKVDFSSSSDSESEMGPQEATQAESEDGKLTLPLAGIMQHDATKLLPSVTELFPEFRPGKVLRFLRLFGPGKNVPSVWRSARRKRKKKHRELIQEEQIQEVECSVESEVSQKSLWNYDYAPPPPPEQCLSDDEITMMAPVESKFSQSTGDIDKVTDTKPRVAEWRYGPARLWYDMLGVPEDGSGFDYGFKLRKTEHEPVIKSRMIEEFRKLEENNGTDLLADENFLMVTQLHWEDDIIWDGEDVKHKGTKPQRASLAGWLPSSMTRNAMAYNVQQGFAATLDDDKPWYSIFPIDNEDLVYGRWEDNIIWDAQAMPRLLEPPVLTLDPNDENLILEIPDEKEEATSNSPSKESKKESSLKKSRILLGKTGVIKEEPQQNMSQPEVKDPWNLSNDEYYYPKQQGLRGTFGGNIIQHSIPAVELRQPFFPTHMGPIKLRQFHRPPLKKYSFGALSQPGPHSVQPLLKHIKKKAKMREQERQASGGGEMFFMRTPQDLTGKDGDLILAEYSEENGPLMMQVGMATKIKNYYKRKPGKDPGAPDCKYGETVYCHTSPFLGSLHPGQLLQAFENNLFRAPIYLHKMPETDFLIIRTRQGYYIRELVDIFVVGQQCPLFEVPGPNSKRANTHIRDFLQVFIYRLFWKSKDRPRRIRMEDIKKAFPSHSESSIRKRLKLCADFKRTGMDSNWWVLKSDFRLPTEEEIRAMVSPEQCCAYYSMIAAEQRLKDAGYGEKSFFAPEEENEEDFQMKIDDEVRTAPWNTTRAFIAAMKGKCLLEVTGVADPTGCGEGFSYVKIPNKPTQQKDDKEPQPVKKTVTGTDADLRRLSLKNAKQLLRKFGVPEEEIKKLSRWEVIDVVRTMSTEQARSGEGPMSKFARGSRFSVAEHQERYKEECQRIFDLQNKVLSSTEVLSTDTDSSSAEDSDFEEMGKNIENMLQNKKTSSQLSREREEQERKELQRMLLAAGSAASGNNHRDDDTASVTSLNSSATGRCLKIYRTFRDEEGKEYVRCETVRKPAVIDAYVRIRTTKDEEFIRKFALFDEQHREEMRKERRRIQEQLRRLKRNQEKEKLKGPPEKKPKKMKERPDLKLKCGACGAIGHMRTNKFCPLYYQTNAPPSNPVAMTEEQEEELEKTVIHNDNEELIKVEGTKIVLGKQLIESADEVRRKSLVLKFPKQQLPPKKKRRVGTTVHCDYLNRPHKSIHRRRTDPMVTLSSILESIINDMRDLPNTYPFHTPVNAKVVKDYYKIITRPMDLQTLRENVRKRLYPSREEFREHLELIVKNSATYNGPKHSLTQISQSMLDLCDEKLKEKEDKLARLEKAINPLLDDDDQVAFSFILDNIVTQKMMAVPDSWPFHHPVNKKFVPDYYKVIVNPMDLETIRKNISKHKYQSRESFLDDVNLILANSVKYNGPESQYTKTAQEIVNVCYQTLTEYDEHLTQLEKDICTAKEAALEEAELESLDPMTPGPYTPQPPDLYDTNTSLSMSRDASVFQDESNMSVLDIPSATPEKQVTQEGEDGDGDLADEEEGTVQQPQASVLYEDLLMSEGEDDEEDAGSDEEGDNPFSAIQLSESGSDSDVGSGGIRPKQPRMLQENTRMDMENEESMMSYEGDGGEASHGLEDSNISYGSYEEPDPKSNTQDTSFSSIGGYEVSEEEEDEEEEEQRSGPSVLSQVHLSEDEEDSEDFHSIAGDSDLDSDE

Sequence of Protein-tyrosine kinase 6 (Q13882 whole entry, looked up): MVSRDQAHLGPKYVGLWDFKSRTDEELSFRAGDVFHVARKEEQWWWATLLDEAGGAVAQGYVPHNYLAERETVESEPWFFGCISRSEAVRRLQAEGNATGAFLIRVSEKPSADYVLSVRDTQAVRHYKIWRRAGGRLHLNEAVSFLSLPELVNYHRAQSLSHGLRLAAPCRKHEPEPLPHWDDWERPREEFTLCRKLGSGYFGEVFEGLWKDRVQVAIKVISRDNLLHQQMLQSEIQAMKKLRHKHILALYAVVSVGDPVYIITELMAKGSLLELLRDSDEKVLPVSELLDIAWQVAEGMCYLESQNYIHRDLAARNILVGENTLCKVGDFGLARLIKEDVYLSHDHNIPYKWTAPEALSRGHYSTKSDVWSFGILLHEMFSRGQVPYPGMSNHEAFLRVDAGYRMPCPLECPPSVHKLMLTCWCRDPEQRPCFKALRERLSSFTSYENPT

SMILES: CN(C)C/C=C/C(=O)Nc1ccc(C(=O)N2CCCC(Nc3ncc(Cl)c(-c4c[nH]c5ccccc45)n3)C2)cc1 (stereo unspecified)
% of control [1]: 99%

SMILES: Cc1cc([C@@H](C)Nc2ccccc2C(=O)O)c2nc(N3CCOCC3)cc(=O)n2c1 [AZD-6482]
% of control [2]: 100%

% of control ([3]; at 1 µM): 101%
% of control ([3]; at 5 µM): 105%
SMILES: C=CC(=O)Nc1cccc(C(=O)Nc2ccc(Nc3cc(-c4[nH]c(SC)nc4C)ccn3)cc2)c1

SMILES: O=C(NOC[C@H](O)CO)c1ccc(F)c(F)c1Nc1ccc(I)cc1F
% of control [4]: 100%

dTM [5]: < 2 K
SMILES: CN(C)CCCOc1ccc(-c2cc(NCCCn3cccn3)nc(S(C)(=O)=O)n2)cc1
